Results: ChEMBL document CHEMBL1201862, “PubChem BioAssay data set” (2004)
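A five-concentration, 48-hour dose response in 96-well plates underlies each endpoint, interpolated linearly between surrounding concentrations. Abbreviation: GI50, concentration required for 50% inhibition of growth.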 The source made the active and inactive calls. Cut-off read from the data, not from the text of the source: active = GI50 up to about 1.1 µM and inactive = higher.

How the values were obtained:
Experiment in all cases: NCI tumour cell line growth inhibition, 48 h
NCI-H23 = test system: NCI-H23
OVCAR-8 = test system: OVCAR-8
SK-MEL-5 = test system: SK-MEL-5
A498 = test system: A498
MDA-MB-435 = test system: MDA-MB-435
SF-268 = test system: SF-268
MDA-MB-231 = test system: MDA-MB-231
RXF 393 = test system: RXF 393
PC-3 = test system: PC-3
OVCAR-4 = test system: OVCAR-4
SW-620 = test system: SW-620
BT-549 = test system: BT-549
ACHN = test system: ACHN
DU-145 = test system: DU-145
SK-MEL-28 = test system: SK-MEL-28
MCF7 = test system: MCF7
HT-29 = test system: HT-29
NCI-H460 = test system: NCI-H460
SF-539 = test system: SF-539

Row | Structure (SMILES) | GI50 (NCI-H23) | GI50 (OVCAR-8) | GI50 (SK-MEL-5) | GI50 (A498) | GI50 (MDA-MB-435) | GI50 (SF-268) | GI50 (MDA-MB-231) | GI50 (RXF 393) | GI50 (PC-3) | GI50 (OVCAR-4) | GI50 (SW-620) | GI50 (BT-549) | GI50 (ACHN) | GI50 (DU-145) | GI50 (SK-MEL-28) | GI50 (MCF7) | GI50 (HT-29) | GI50 (NCI-H460) | GI50 (SF-539)
1 | CSc1ccc2c(cc1=O)[C@@H](NC(C)=O)CCc1cc(O)c(O)c(O)c1-2 | 20.5 µM (inactive) | 19.1 µM (inactive) | 32.4 µM (inactive) | 23.3 µM (inactive) | 10.4 µM (inactive) | 16.3 µM (inactive) | 23.9 µM (inactive) | 72.4 µM (inactive) | 84.3 µM (inactive) | 17.6 µM (inactive) | 28.1 µM (inactive) | 29.6 µM (inactive) | 22.3 µM (inactive) | > 100 µM (inactive) | > 100 µM (inactive) | 4.81 µM (inactive) | 9.82 µM (inactive) | 16.4 µM (inactive) | –
2 | COC(=O)C1c2c(c3ccccc3n2C(=O)OC)CCN2CCC1C(S(=O)(=O)c1ccccc1)C2=O (stereo unspecified) | > 100 µM (inactive) | > 100 µM (inactive) | > 100 µM (inactive) | > 100 µM (inactive) | > 100 µM (inactive) | > 100 µM (inactive) | > 100 µM (inactive) | 89.1 µM (inactive) | > 100 µM (inactive) | – | > 100 µM (inactive) | > 100 µM (inactive) | – | > 100 µM (inactive) | > 100 µM (inactive) | > 100 µM (inactive) | > 100 µM (inactive) | > 100 µM (inactive) | > 100 µM (inactive)
3 | COc1ccc2[nH]c3c(C)c4cnccc4c(C)c3c2c1 | 6.25 µM (inactive) | 1.01 µM (active) | > 10 µM (inactive) | – | 1.48 µM (inactive) | 2.75 µM (inactive) | 2.8 µM (inactive) | 2.49 µM (inactive) | 2.99 µM (inactive) | 1.94 µM (inactive) | 0.964 µM (active) | 7.48 µM (inactive) | 2.01 µM (inactive) | 2.93 µM (inactive) | 1.94 µM (inactive) | 1.52 µM (inactive) | 1.11 µM (active) | 1.78 µM (inactive) | 1.88 µM (inactive)
4 | CCOC(=O)CC1c2ccc(O)cc2OC(=O)C1c1ccc(N)cc1 (stereo unspecified) | > 100 µM (inactive) | 95.9 µM (inactive) | > 100 µM (inactive) | > 100 µM (inactive) | > 100 µM (inactive) | 98.4 µM (inactive) | > 100 µM (inactive) | > 100 µM (inactive) | > 100 µM (inactive) | – | > 100 µM (inactive) | > 100 µM (inactive) | > 100 µM (inactive) | > 100 µM (inactive) | > 100 µM (inactive) | > 100 µM (inactive) | > 100 µM (inactive) | > 100 µM (inactive) | 56.6 µM (inactive)
5 | CC1=[N+]([O-])C(C)(C)N(N=O)C1(C)C | > 10 µM (inactive) | > 10 µM (inactive) | – | – | > 10 µM (inactive) | > 10 µM (inactive) | > 10 µM (inactive) | > 10 µM (inactive) | > 10 µM (inactive) | > 10 µM (inactive) | > 10 µM (inactive) | > 10 µM (inactive) | > 10 µM (inactive) | > 10 µM (inactive) | – | > 10 µM (inactive) | > 10 µM (inactive) | > 10 µM (inactive) | –
6 | CC(=O)O[C@H]1CC[C@@]2(C)C(=CC[C@@H]3[C@@H]2CC[C@]2(C)Nc4c(cnn4S(C)(=O)=O)C[C@@H]32)C1 | 42.5 µM (inactive) | > 100 µM (inactive) | 16.4 µM (inactive) | > 100 µM (inactive) | 46.8 µM (inactive) | – | > 100 µM (inactive) | 18.1 µM (inactive) | 39.1 µM (inactive) | – | – | 23.3 µM (inactive) | – | 49.5 µM (inactive) | > 100 µM (inactive) | 28.9 µM (inactive) | 21.9 µM (inactive) | 44.4 µM (inactive) | –
7 | COc1cccc(/C=N/n2c(-c3ccccc3)n[nH]c2=O)c1 | 27.3 µM (inactive) | 29.8 µM (inactive) | – | 24.4 µM (inactive) | > 100 µM (inactive) | 17.5 µM (inactive) | 29.5 µM (inactive) | – | > 100 µM (inactive) | > 100 µM (inactive) | > 100 µM (inactive) | 26.9 µM (inactive) | > 100 µM (inactive) | 49.5 µM (inactive) | > 100 µM (inactive) | 75.5 µM (inactive) | > 100 µM (inactive) | 42.2 µM (inactive) | 28.1 µM (inactive)
8 | CC1(C)OC2OC(COC(=O)C=[N+]=[N-])C3OC(C)(C)OC3C2O1 (stereo unspecified) | > 100 µM (inactive) | – | > 100 µM (inactive) | > 100 µM (inactive) | > 100 µM (inactive) | > 100 µM (inactive) | > 100 µM (inactive) | > 100 µM (inactive) | > 100 µM (inactive) | > 100 µM (inactive) | > 100 µM (inactive) | > 100 µM (inactive) | > 100 µM (inactive) | > 100 µM (inactive) | > 100 µM (inactive) | > 100 µM (inactive) | > 100 µM (inactive) | > 100 µM (inactive) | –
9 | Cc1cc(NS(=O)(=O)c2ccc(/N=[N+](\[O-])c3ccc(S(=O)(=O)Nc4cc(C)on4)cc3)cc2)no1 | > 100 µM (inactive) | > 100 µM (inactive) | > 100 µM (inactive) | > 100 µM (inactive) | > 100 µM (inactive) | > 100 µM (inactive) | > 100 µM (inactive) | > 100 µM (inactive) | > 100 µM (inactive) | > 100 µM (inactive) | – | > 100 µM (inactive) | > 100 µM (inactive) | > 100 µM (inactive) | – | > 100 µM (inactive) | > 100 µM (inactive) | – | > 100 µM (inactive)
10 | C[C@@H]1Nc2cc(NC(=O)OCCF)nc(N)c2N=C1c1ccccc1 | < 0.0001 µM (active) | < 0.0001 µM (active) | < 0.0001 µM (active) | 19.8 µM (inactive) | < 0.0001 µM (active) | < 0.0001 µM (active) | < 0.0001 µM (active) | 29 µM (inactive) | < 0.0001 µM (active) | – | < 0.0001 µM (active) | 84.1 µM (inactive) | 24.8 µM (inactive) | < 0.0001 µM (active) | 88.7 µM (inactive) | 0.0208 µM (active) | < 0.0001 µM (active) | < 0.0001 µM (active) | < 0.0001 µM (active)
11 | O=Nc1c(-c2c(O)[nH]c3ccc(I)cc23)[nH]c2ccccc12 | 4.58 µM (inactive) | 4.95 µM (inactive) | 4.12 µM (inactive) | – | 4.55 µM (inactive) | 4.42 µM (inactive) | 3.79 µM (inactive) | 2.36 µM (inactive) | 3.37 µM (inactive) | 3.41 µM (inactive) | – | 18 µM (inactive) | 2.53 µM (inactive) | 3.35 µM (inactive) | 4.32 µM (inactive) | 2.41 µM (inactive) | 3.48 µM (inactive) | 3.7 µM (inactive) | 7.03 µM (inactive)
12 | COc1cc(C(=O)Nc2cc(C(N)=O)cc(OC)c2OC)cc(NC(=O)/C=C/c2ccccc2)c1OC | > 100 µM (inactive) | > 100 µM (inactive) | – | – | > 100 µM (inactive) | – | 20 µM (inactive) | > 100 µM (inactive) | > 100 µM (inactive) | > 100 µM (inactive) | > 100 µM (inactive) | > 100 µM (inactive) | > 100 µM (inactive) | > 100 µM (inactive) | > 100 µM (inactive) | > 100 µM (inactive) | > 100 µM (inactive) | 66.4 µM (inactive) | > 100 µM (inactive)
